Publication PMC7604311, “Caprine Bactenecins as Promising Tools for Developing New Antimicrobial and Antitumor Drugs” (Frontiers in Cellular and Infection Microbiology, 2020)
Values after ≈ are worked out from the molar mass of the structure shown. Ends that are not written are not given here. Peptide text beside a SMILES is read from it.

Key:
MTT test = format: cell-based; details: human, serum-free RPMI-1640, overnight incubation, mean ± SD of three independent tests, read-out: IC50 of cytotoxic action toward human PBMC
Method: Cytotoxic activity of peptides toward various types of eukaryotic cells was assessed using the standard MTT [3-(4,5-Dimethylthiazol-2-yl)-2,5-diphenyltetrazolium bromide] test ([Mosmann, 1983]). Human peripheral blood mononuclear cells (PBMC) were isolated from the peripheral blood of healthy donors. Whole heparinized blood diluted 3-fold with sterile PBS was carefully layered upon the 5 ml of the sterile Ficoll-400 (Pharmacia, Sweden) with a density of 1.077 in a sterile 50 ml conical tube and then centrifuged at 600 g and 4°C for 40 min. The mononuclear “ring” remaining above the Ficoll was collected using a transfer pipette and placed in another tube. Cells were washed twice with sterile PBS, resuspended in RPMI-1640 culture medium and immediately used for the test. Tumor cell lines were purchased from Biolot (Saint Petersburg, Russia) and cultured at 37°C and 5% CO2 in RPMI-1640 medium (Biolot, Saint Petersburg, Russia) supplemented with 10% fetal bovine serum, glutamine, and penicillin-streptomycin combination. For the experiments, cells were washed from the medium they were growing in and resuspended in serum- and antibiotic-free RPMI-1640. Cells were added at not less than 2 × 10^4 per well in sterile flat bottom 96-well microplates containing serial dilutions of tested peptides in RPMI-1640. For the positive control (100% viable cells), RPMI-1640 medium was used instead of the peptide solution, whereas for the negative control (0% viable cells) medium replaced both peptide and cells. Test plates were incubated at 37°C and 5% CO2 overnight, after which MTT metabolic marker in PBS (5 mg/ml) was introduced into each well. After an additional 4 h incubation, the reaction was stopped by adding isopropanol supplemented with 0.04 M HCl, in which the formazan crystals (formed as a result of MTT reduction in presence of metabolically active cells) were dissolved, and OD at 540 nm was measured. Background absorbance at 690 nm was subtracted from the results to countervail any unspecific OD fluctuations. The % of surviving cells was found as:
(2) Survival(%)=(ODsample−OD0% viable)/(OD100% viable−OD0% viable)×100%,
(§1) where ODsample, OD0% viable, and OD100% viable are respectively values of the OD at 540 nm minus the OD at 690 nm for the test sample and negative or positive controls. IC50 toxicity values were determined by nonlinear regression analysis of the dose response curves using Sigma Plot 11 (Systat Software Inc., USA). The experiments were repeated three times, with 3 parallels of samples and 4–6 parallels of controls each time.

E. coli ML-35p = experiment: Broth microdilution assay (MIC); format: cell-based, Escherichia coli; details: 50% MH broth/50% 10 mM Na-P buffer pH 7.4 with 0.1% BSA, 1×10^6 CFU/ml, 20 h, median of 3–6 independent experiments in triplicate
Method: (§2) The minimal inhibitory concentrations (MIC) of peptides were determined using microdilution assay in Müller–Hinton (MH) broth in general accordance with the guidelines of the European Committee for Antimicrobial Susceptibility Testing. Test plates were additionally pretreated with 0.1% bovine serum albumin (BSA) in distilled H2O (incubated for 1 h at 37°C) to reduce possible non-specific binding of peptides to the plastic surface of the wells, as proposed for AMP activity measuring ([Tossi et al., 1997]; [Wiegand et al., 2008]). Two-fold serial dilutions of peptides starting with 2 × stock concentration were prepared in sterile 10 mM sodium phosphate (Na-P) buffer, pH 7.4, with 0.1% BSA. Thus, final solutions contained 50% of Na-P diluted peptide and 50% of MH broth with bacteria. Bacteria for testing were grown overnight, then transferred into a fresh portion of 2.1% MH medium and additionally incubated for 2–3 h to obtain bacterial culture in its mid-logarithmic growth phase, which was diluted down to the final concentration of 1 × 10^6 CFU/ml. Concentration of bacteria in growth medium was calculated based on its absorbance at 620 nm.
After 20 h of incubation of AMPs with bacteria MICs were determined as lowest concentrations of AMPs completely preventing the visible growth of bacteria. Tests were performed in 60-well Terasaki microplates (10 µl end volume, V-shaped bottom; Sarstedt, Germany); dilutions in each test were made in triplicate. Final MIC values were calculated as medians based on the results of 3–5 independent experiments.

[1] = tested on: Gram-positive and Gram-negative bacteria; experiment: Geometric mean of MICs (GMIC) over tested strains; format: cell-based; details: geometric mean of MICs against all tested bacteria
Method: as §2
After 20 h of incubation of AMPs with bacteria MICs were determined as lowest concentrations of AMPs completely preventing the visible growth of bacteria. […] Final MIC values were calculated as medians based on the results of 3–5 independent experiments.

A. baumannii 7226/16 [2] = format: cell-based, Acinetobacter baumannii; details: 7226/16, 24 h, 2
Method: Quantification of the biofilms forming in the presence of various concentrations of tested AMPs was performed using the crystal violet assay according to general guidelines ([Merritt et al., 2006]). Tests were performed in polystyrene 96-well plates with U-shaped bottom. Peptides were serially diluted in a bacterial growth medium (MH for A. baumannii or TSB for P. aeruguinosa) in a volume of 50 μl per well. Overnight cultures of tested bacteria in a stationary phase of growth were 50 times diluted and introduced into the experimental wells at the same volume of 50 μl. Samples were incubated for 24 h at 37°C. The content of the wells was then shacked out, the plates were gently washed from unattached planktonic bacteria in still water (poured into a large enough vessel); bacterial cells and matrix components adhered to the walls of the wells were stained with a 0.1% aqueous solution of crystal violet dye: 125 μl of dye solution was put into each well and incubated at room temperature for 10 min. […] One hundred and twenty five microliters of crystal violet extract from each well were transferred into a flat-bottomed microtiter plate, and the optical density was measured at a wavelength of 560–595 nm (depending on the maximum of absorption in a particular experiment). […] Presented results are medians calculated based on 3 independent experiments.

U937 = experiment: MTT test; format: cell-based, human; details: serum-free RPMI-1640, overnight incubation, mean ± SD of three independent tests, read-out: IC50 of cytotoxic action toward U937
Method: Cytotoxic activity of peptides toward various types of eukaryotic cells was assessed using the standard MTT [3-(4,5-Dimethylthiazol-2-yl)-2,5-diphenyltetrazolium bromide] test ([Mosmann, 1983]). Human peripheral blood mononuclear cells (PBMC) were isolated from the peripheral blood of healthy donors. Whole heparinized blood diluted 3-fold with sterile PBS was carefully layered upon the 5 ml of the sterile Ficoll-400 (Pharmacia, Sweden) with a density of 1.077 in a sterile 50 ml conical tube and then centrifuged at 600 g and 4°C for 40 min. The mononuclear “ring” remaining above the Ficoll was collected using a transfer pipette and placed in another tube. Cells were washed twice with sterile PBS, resuspended in RPMI-1640 culture medium and immediately used for the test. Tumor cell lines were purchased from Biolot (Saint Petersburg, Russia) and cultured at 37°C and 5% CO2 in RPMI-1640 medium (Biolot, Saint Petersburg, Russia) supplemented with 10% fetal bovine serum, glutamine, and penicillin-streptomycin combination. For the experiments, cells were washed from the medium they were growing in and resuspended in serum- and antibiotic-free RPMI-1640. Cells were added at not less than 2 × 10^4 per well in sterile flat bottom 96-well microplates containing serial dilutions of tested peptides in RPMI-1640. […] After an additional 4 h incubation, the reaction was stopped by adding isopropanol supplemented with 0.04 M HCl, in which the formazan crystals (formed as a result of MTT reduction in presence of metabolically active cells) were dissolved, and OD at 540 nm was measured. Background absorbance at 690 nm was subtracted from the results to countervail any unspecific OD fluctuations. […]
as §1, with “The experiments were repeated three times, with 3 parallels of samples and 4–6 parallels of controls each time.” left out

P. aeruginosa MDR 522/17 [3] = format: cell-based, Pseudomonas aeruginosa; details: MDR 522/17, 24 h
Method: Quantification of the biofilms forming in the presence of various concentrations of tested AMPs was performed using the crystal violet assay according to general guidelines ([Merritt et al., 2006]). Tests were performed in polystyrene 96-well plates with U-shaped bottom. Peptides were serially diluted in a bacterial growth medium (MH for A. baumannii or TSB for P. aeruguinosa) in a volume of 50 μl per well. Overnight cultures of tested bacteria in a stationary phase of growth were 50 times diluted and introduced into the experimental wells at the same volume of 50 μl. Samples were incubated for 24 h at 37°C. The content of the wells was then shacked out, the plates were gently washed from unattached planktonic bacteria in still water (poured into a large enough vessel); bacterial cells and matrix components adhered to the walls of the wells were stained with a 0.1% aqueous solution of crystal violet dye: 125 μl of dye solution was put into each well and incubated at room temperature for 10 min. After staining dye solution was removed, the plates were washed with clean water and allowed to air-dry. Finally, the bound dye was redissolved by adding 200 μl of 30% acetic acid into each well, incubating it for 15 min at room temperature, and then thoroughly mixing the content of the wells by pipetting. One hundred and twenty five microliters of crystal violet extract from each well were transferred into a flat-bottomed microtiter plate, and the optical density was measured at a wavelength of 560–595 nm (depending on the maximum of absorption in a particular experiment). Experimental samples were made in quadruplicates, and there were 8–9 repeats of control samples without peptides in each test. Presented results are medians calculated based on 3 independent experiments.

A. baumannii 7226/16 [4] = tested on: A. baumannii 7226/16; design: key to Susceptibility category: R – resistant; I – intermediate; S – susceptible; details: initial susceptibility testing of the clinical isolate; ref supplying institutions; cited from earlier work
Description: page 1: Supplementary Material Supplementary Table 1. Susceptibility profiles of tested clinical isolates of bacteria. Gram-negative: Gram-positive: antibiotic E. coli A. baumannii P. aeruginosa K. pneumoniae antibiotic S. aureus ESBL 521/17 7226/16 MDR 522/17 ESBL 344/17 1399/17 AMP* R [≥32] R [≥32 ] R [≥32 ] R [≥32] AMP* R [≥32 ] AMC R [16] - - S [≤2] AMC - CTX R [≥64] - - S [≤1] AMX - CAZ R [≥64] - R [≥64] S [≤1] AZM R [≥4] FEP R [≥64] - R [≥64] S [≤1] VAN S [≤2] ATM R [≥64] - - S [≤1] DOX I [2] IPM S [≤1] R [≥16] I [8] S [≤1] CLI I [2] MEM S [≤0.25 ] R [≥32 ] R [≥16] S [≤0.25] MEM I [4] AM ...

[5] = tested on: K. pneumoniae ESBL 344/17; design: key to Susceptibility category: R – resistant; I – intermediate; S – susceptible; details: initial susceptibility testing of the clinical isolate; ref supplying institutions; cited from earlier work;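 note: each antibiotic is scored as S (susceptible), I (intermediate) or R (resistant), with its MIC listed alongside, in a susceptibility profile of the clinical isolate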
E. coli ESBL 521/17 = tested on: E. coli ESBL 521/17; design: key to Susceptibility category: R – resistant; I – intermediate; S – susceptible; details: initial susceptibility testing of the clinical isolate; ref supplying institutions; cited from earlier work
S. aureus 1399/17 = tested on: S. aureus 1399/17; design: key to Susceptibility category: R – resistant; I – intermediate; S – susceptible; details: initial susceptibility testing of the clinical isolate; ref supplying institutions; cited from earlier work
P. aeruginosa MDR 522/17 [6] = tested on: P. aeruginosa MDR 522/17; design: key to Susceptibility category: R – resistant; I – intermediate; S – susceptible; details: initial susceptibility testing of the clinical isolate; ref supplying institutions; cited from earlier work

Work on `CC[C@H](C)[C@H](NC(=O)[C@H](CCCNC(=N)N)NC(=O)[C@@H](NC(=O)[C@H](Cc1ccccc1)NC(=O)[C@@H]1CCCN1C(=O)[C@@H]1CCCN1C(=O)[C@@H]1CCCN1C(=O)[C@H](Cc1c[nH]cn1)NC(=O)[C@@H](NC(=O)[C@H](CCCNC(=N)N)NC(=O)[C@H](CCCNC(=N)N)NC(=O)[C@H](Cc1ccccc1)NC(=O)[C@@H]1CCCN1C(=O)[C@H](CC(C)C)NC(=O)[C@H](CCCNC(=N)N)NC(=O)[C@H](Cc1ccccc1)NC(=O)[C@@H](N)CCCNC(=N)N)[C@@H](C)CC)C(C)C)C(=O)N[C@@H](Cc1c[nH]cn1)C(=O)N1CCC[C@H]1C(=O)N1CCC[C@H]1C(=O)N1CCC[C@H]1C(=O)N[C@@H](Cc1ccccc1)C(=O)N[C@@H](Cc1ccc(O)cc1)C(=O)N[C@@H](CCCNC(=N)N)C(=O)N[C@@H](CCCNC(=N)N)C(=O)N[C@@H](Cc1ccccc1)C(=O)N[C@@H](CC(C)C)C(=O)O` [ChBac3.4-1-COOH (rec)] (H-RFRLPFRRIHPPPFVRIHPPPFYRRFL-OH; N-terminus assumed) yielded an IC50 (MTT test) of 40.8 ± 9.1 µM, an MIC (E. coli ML-35p) of 4 µM (≈ 14.1 µg/mL) and a GMIC total [1] of 5.0 µM.
Molecule “RFRLPFRRPWPIRIHPPPFYPWPFRRFL [ChBac3.4-2-COOH]” has an IC50 (MTT test) of 20.2 ± 4.5 µM and an MIC (E. coli ML-35p) of 4 µM.
For “RFRRFRLPFRRPPIRIH-NH2 [RFR-ChBac3.4 (1-14)-NH2]”, the IC50 (MTT test) was > 64 µM, the MIC (E. coli ML-35p) was 1 µM and the Biofilm inhibition (A. baumannii 7226/16 [2]) was 53 ± 3%. The IC50 (U937) was > 64 µM and the Biofilm inhibition (P. aeruginosa MDR 522/17 [3]) was 79 ± 5%.
For `NCC[C@H](O)C(=O)N[C@@H]1C[C@H](N)[C@@H](O[C@H]2O[C@H](CN)[C@@H](O)[C@H](O)[C@H]2O)[C@H](O)[C@H]1O[C@H]1O[C@H](CO)[C@@H](O)[C@H](N)[C@H]1O` [AMK, amikacin], the MIC of antibiotic (A. baumannii 7226/16 [4]) is given as 8 µg/mL, the Susceptibility category (A. baumannii 7226/16 [4]) is given as “I” and the MIC of antibiotic [5] is given as ≤ 2 µg/mL. The Susceptibility category [5] was “S”, the MIC of antibiotic (E. coli ESBL 521/17) was 16 µg/mL and the Susceptibility category (E. coli ESBL 521/17) was “I”. For the same molecule, the MIC of antibiotic (S. aureus 1399/17) was ≥ 64 µg/mL, the Susceptibility category (S. aureus 1399/17) was “R” and the MIC of antibiotic (P. aeruginosa MDR 522/17 [6]) was 4 µg/mL. For the same molecule, the Susceptibility category (P. aeruginosa MDR 522/17 [6]) was “I”.
